Results taken from ChEMBL document CHEMBL3259791, “Discovery of (E)-3-((styrylsulfonyl)methyl)pyridine and (E)-2-((styrylsulfonyl)methyl)pyridine derivatives as anticancer agents: synthesis, structure-activity relationships, and biological activities” (J Med Chem, 2014).
The source made the active and inactive calls. No cut-off for these calls is given here.

Key:
[1] = system: WI-38; assay: Cell cycle arrest in human WI38 cells assessed as accumulation at subG1 phase at […] after 24 hrs by flow cytometric analysis (reference value: 10.53%); format: functional
[2] = system: HeLa; assay: Ratio of ON01910 IC50 to compound IC50 for human HeLa cells; format: functional
[3] = system: LNCaP; assay: Selectivity ratio of IC50 for human WI38 cells to IC50 for AR positive human LNCAP cells; format: functional
[4] = system: A2780; assay: Induction of apoptosis in human A2780 cells assessed as viable cells at […] after 48 hrs by annexin V/PI double staining (reference value: 82.12%); format: functional; conditions: A2780, 48 h, read-out: Activity
[5] = system: A2780; assay: Induction of apoptosis in human A2780 cells assessed as necrotic cells at 1 uM after 48 hrs by annexin V/PI double staining (reference value: 0.53%); format: functional
[6] = system: A2780; assay: Cell cycle arrest in human A2780 cells assessed as accumulation at subG1 phase at 0.06 uM after 24 hrs by flow cytometric analysis (reference value: 0.62%); format: functional
[7] = system: A2780; assay: Induction of apoptosis in human A2780 cells assessed as necrotic cells at […] after 48 hrs by annexin V/PI double staining (reference value: 0.53%); format: functional
[8] = Dissociation constant, pKa of the compound by pH-metric method; format: physicochemical
[9] = Apparent permeability across apical to basolateral side in human Caco2 cells; format: ADME, cell-based; conditions: Caco-2
[10] = Apparent permeability across basolateral to apical side in human Caco2 cells; format: ADME, cell-based; conditions: Caco-2
[11] = system: WI-38; assay: Induction of apoptosis in human WI38 cells assessed as caspase-3/7 activation up to 1 uM after 24 hrs by using Apo-ONE homogeneous caspase-3/7 kit; format: functional, cell-based
[12] = system: A2780; assay: Cell cycle arrest in human A2780 cells assessed as accumulation at G1 phase at […] after 24 hrs by flow cytometric analysis (reference value: 54.89%); format: functional
[13] = system: A2780; assay: Induction of apoptosis in human A2780 cells assessed as caspase-3/7 activation at 0.06 uM after 24 hrs by using Apo-ONE homogeneous caspase-3/7 kit; format: functional, cell-based
[14] = system: MDA-MB-231; assay: Ratio of ON01910 IC50 to compound IC50 for ER negative human MDA-MB-231 cells; format: functional
[15] = Oral bioavailability (0 to infinity) in mouse at 40 mg/kg after 24 hrs; format: ADME, organism-based; conditions: in vivo
[16] = system: A2780; assay: Selectivity ratio of IC50 for human WI38 cells to IC50 for human A2780 cells; format: functional
[17] = Half life in rat liver microsomes; format: ADME
[18] = system: A2780; assay: Induction of apoptosis in human A2780 cells assessed as viable cells at 0.06 uM after 48 hrs by annexin V/PI double staining (reference value: 82.12%); format: functional; conditions: A2780, 48 h, read-out: Activity
[19] = system: WI-38; assay: Induction of apoptosis in human WI38 cells assessed as late-stage apoptotic cells at 0.06 uM after 48 hrs by annexin V/PI double staining (reference value: 16.26%); format: functional
[20] = system: HeLa; assay: Selectivity ratio of IC50 for human WI38 cells to IC50 for human HeLa cells; format: functional
[21] = system: MCF7; assay: Ratio of ON01910 IC50 to compound IC50 for ER positive human MCF7 cells; format: functional
[22] = system: WI-38; assay: Antiproliferative activity against human WI38 cells assessed as cell growth inhibition after 72 hrs by MTT assay; format: functional; conditions: WI-38, 72 h
[23] = system: A2780; assay: Reduction in CDC25C level in human A2780 cells at 0.03 uM after 24 hrs by Western blot analysis; format: functional, cell-based
[24] = Aqueous solubility of the compound by turbidimetric solubility assay; format: physicochemical; conditions: buffer
[25] = system: WI-38; assay: Induction of apoptosis in human WI38 cells assessed as necrotic cells at 0.06 uM after 48 hrs by annexin V/PI double staining (reference value: 0.99%); format: functional
[26] = system: A2780; assay: Reduction in Mcl1 level in human A2780 cells at 0.03 uM after 24 hrs by Western blot analysis; format: functional, cell-based
[27] = system: DU-145; assay: Selectivity ratio of IC50 for human WI38 cells to IC50 for AR negative human DU145 cells; format: functional
[28] = Octanol-buffer partition coefficient, log D of the compound at pH 7.4 by shake-flask method; format: physicochemical
[29] = system: MCF7; assay: Antiproliferative activity against human MCF7 cells assessed as cell growth inhibition after 72 hrs by MTT assay; format: functional; conditions: MCF7, 72 h
[30] = Antiproliferative activity against human PANC1 cells assessed as cell growth inhibition after 72 hrs by MTT assay; format: functional; conditions: PANC-1, 72 h
[31] = system: WI-38; assay: Cell cycle arrest in human WI38 cells assessed as accumulation at G2/M phase at 0.06 uM after 24 hrs by flow cytometric analysis (reference value: 17.36%); format: functional
[32] = system: HeLa; assay: Antiproliferative activity against human HeLa cells assessed as cell growth inhibition after 72 hrs by MTT assay; format: functional
[33] = system: DU-145; assay: Ratio of ON01910 IC50 to compound IC50 for AR negative human DU145 cells; format: functional
[34] = system: HCT-116; assay: Selectivity ratio of IC50 for human WI38 cells to IC50 for human HCT116 cells; format: functional
[35] = biological target: Voltage-gated inwardly rectifying potassium channel KCNH2 (Homo sapiens, UniProt Q12809); assay: Inhibition of human ERG expressed in CHO cells
[36] = system: WI-38; assay: Cell cycle arrest in human WI38 cells assessed as accumulation at S phase at 0.06 uM after 24 hrs by flow cytometric analysis (reference value: 16.25%); format: functional
[37] = system: A2780; assay: Cell cycle arrest in human A2780 cells assessed as accumulation at S phase at 0.06 uM after 24 hrs by flow cytometric analysis (reference value: 22.72%); format: functional
[38] = Elimination half life in mouse at 40 mg/kg, po after 24 hrs; format: ADME, organism-based; design: dose 40 mg/kg, route oral; conditions: in vivo, read-out: beta t1/2 (converted)
[39] = system: DU-145; assay: Antiproliferative activity against AR negative human DU145 cells assessed as cell growth inhibition after 72 hrs by MTT assay; format: functional; conditions: DU-145, 72 h
[40] = system: A2780; assay: Cell cycle arrest in human A2780 cells assessed as accumulation at G2/M phase at […] after 24 hrs by flow cytometric analysis (reference value: 21.81%); format: functional
[41] = system: WI-38; assay: Induction of apoptosis in human WI38 cells assessed as late-stage apoptotic cells at 1 uM after 48 hrs by annexin V/PI double staining (reference value: 16.26%); format: functional
[42] = system: MCF7; assay: Selectivity ratio of IC50 for human WI38 cells to IC50 for ER positive human MCF7 cells; format: functional
[43] = system: HCT-116; assay: Antiproliferative activity against human HCT116 cells assessed as cell growth inhibition after 72 hrs by MTT assay; format: functional; conditions: HCT-116, 72 h
[44] = Oral bioavailability (0 to t) in mouse at 10 mg/kg after 24 hrs; format: ADME, organism-based; conditions: in vivo
[45] = Elimination half life in mouse at 10 mg/kg, po after 24 hrs; format: ADME, organism-based; design: dose 10 mg/kg, route oral; conditions: in vivo, read-out: beta t1/2 (converted)
[46] = system: A2780; assay: Reduction in Mcl1 level in human A2780 cells at 1 uM after 24 hrs by Western blot analysis; format: functional, cell-based
[47] = system: A2780; assay: Induction of apoptosis in human A2780 cells assessed as caspase-3/7 activation at 1 uM after 24 hrs by using Apo-ONE homogeneous caspase-3/7 kit; format: functional, cell-based

Sequence of Voltage-gated inwardly rectifying potassium channel KCNH2 (Q12809 whole entry): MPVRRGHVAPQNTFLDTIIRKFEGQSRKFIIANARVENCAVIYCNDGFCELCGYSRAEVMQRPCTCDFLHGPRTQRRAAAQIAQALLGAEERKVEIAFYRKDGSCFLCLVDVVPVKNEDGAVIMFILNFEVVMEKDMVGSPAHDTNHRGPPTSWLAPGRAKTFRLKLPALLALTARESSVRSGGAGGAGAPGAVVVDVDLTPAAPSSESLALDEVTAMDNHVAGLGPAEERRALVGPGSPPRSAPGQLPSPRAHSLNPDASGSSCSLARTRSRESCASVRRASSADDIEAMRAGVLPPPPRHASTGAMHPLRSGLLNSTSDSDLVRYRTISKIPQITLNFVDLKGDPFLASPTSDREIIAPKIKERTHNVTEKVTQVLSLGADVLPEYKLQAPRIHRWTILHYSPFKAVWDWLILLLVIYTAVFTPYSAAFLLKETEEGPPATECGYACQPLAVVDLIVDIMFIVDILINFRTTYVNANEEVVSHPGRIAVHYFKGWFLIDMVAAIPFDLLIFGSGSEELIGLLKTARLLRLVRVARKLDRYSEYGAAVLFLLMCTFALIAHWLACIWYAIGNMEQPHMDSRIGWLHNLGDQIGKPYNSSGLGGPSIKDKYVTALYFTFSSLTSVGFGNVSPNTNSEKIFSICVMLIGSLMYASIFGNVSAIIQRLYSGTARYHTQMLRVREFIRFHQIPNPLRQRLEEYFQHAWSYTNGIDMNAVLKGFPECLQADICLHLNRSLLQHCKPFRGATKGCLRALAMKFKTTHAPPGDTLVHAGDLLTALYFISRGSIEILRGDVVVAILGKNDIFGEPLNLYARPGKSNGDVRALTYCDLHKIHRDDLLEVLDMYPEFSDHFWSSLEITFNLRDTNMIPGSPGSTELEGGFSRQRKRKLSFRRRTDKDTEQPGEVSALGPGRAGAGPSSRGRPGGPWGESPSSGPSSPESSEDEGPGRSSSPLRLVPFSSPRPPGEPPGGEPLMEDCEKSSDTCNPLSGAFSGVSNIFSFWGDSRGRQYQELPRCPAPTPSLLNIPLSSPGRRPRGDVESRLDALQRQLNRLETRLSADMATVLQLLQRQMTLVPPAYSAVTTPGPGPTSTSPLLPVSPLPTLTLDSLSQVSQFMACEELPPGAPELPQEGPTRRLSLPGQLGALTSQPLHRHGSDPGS

## COc1cc(OC)c(/C=C/S(=O)(=O)Cc2ccc(OC)c(N)n2)c(OC)c1
[1]
  Activity: 12.08%
[2]
  Ratio IC50: 10
[3]
  Ratio IC50: >1400
[4]
  viability at […]: 25.3%
[5]
  Activity: 1.11%
[6]
  Activity: 10.06%
[7]
  Activity: 1.97%
[8]
  pKa: 4.67
[9]
  Papp A→B: 33.1 ×10⁻⁶ cm/s
[10]
  Papp B→A: 26.2 ×10⁻⁶ cm/s
[11]
  Activity: inactive
[12]
  Activity: 14.1%
[13]
  Activity: Active
[14]
  Ratio IC50: 10
[15]
  bioavailability: 68%
[16]
  Ratio IC50: >1400
[17]
  half-life: 0.25 h
[18]
  viability at 0.06 µM: 33.3%
[19]
  Activity: 13.04%
[20]
  Ratio IC50: >1400
[21]
  Ratio IC50: 10
[22]
  GI50: > 10000 nM
[23]
  inhibition: Active
[24]
  solubility kinetic: > 100 µM
[25]
  Activity: 3.39%
[26]
  inhibition: Active
[27]
  Ratio IC50: >1400
[28]
  logD: 2.41
[29]
  GI50: 6 nM
[30]
  GI50: < 1 nM
[31]
  Activity: 22.85%
[32]
  GI50: < 1 nM
[33]
  Ratio IC50: 10
[34]
  Ratio IC50: >1400
[35]
  IC50: > 25000 nM
[36]
  Activity: 9.81%
[37]
  Activity: 17.39%
[38]
  half-life: 77.1 h
[39]
  GI50: 6 nM
[40]
  Activity: 50.94%
[41]
  Activity: 15.52%
[42]
  Ratio IC50: >1400
[43]
  GI50: 8 nM

## COc1cc(OC)c(/C=C/S(=O)(=O)Cc2ccc(OC)c(NCC(=O)O)c2)c(OC)c1 [RIGOSERTIB]
[1]
  Activity: 9.46%
[4]
  viability at […]: 46.2%
[5]
  Activity: 1.19%
[6]
  Activity: 0.63%
[7]
  Activity: 0.71%
[12]
  Activity: 37.71%
[18]
  viability at 0.06 µM: 89.5%
[19]
  Activity: 11.54%
[22]
  GI50: > 10000 nM
[25]
  Activity: 1.25%
[29]
  GI50: 50 nM
[30]
  GI50: 39 nM
[31]
  Activity: 18%
[32]
  GI50: 12 nM
[36]
  Activity: 11.86%
[37]
  Activity: 26.34%
[39]
  GI50: 75 nM
[40]
  Activity: 31.77%
[41]
  Activity: 22.43%
[43]
  GI50: 70 nM

## COc1cc(OC)c(/C=C/S(=O)(=O)Cc2ccc(OC)c(NS(C)(=O)=O)n2)c(OC)c1
[1]
  Activity: 11.06%
[44]
  bioavailability: 50%
[45]
  half-life: 4.6 h
[4]
  viability at […]: 88%
[5]
  Activity: 1.31%
[6]
  Activity: 0.95%
[7]
  Activity: 0.48%
[8]
  pKa: 7.28
[9]
  Papp A→B: 3.15 ×10⁻⁶ cm/s
[10]
  Papp B→A: 53.4 ×10⁻⁶ cm/s
[11]
  Activity: inactive
[12]
  Activity: 57.35%
[17]
  half-life: 1.88 h
[18]
  viability at 0.06 µM: 87.4%
[19]
  Activity: 18.51%
[22]
  GI50: > 10000 nM
[24]
  solubility kinetic: > 100 µM
[25]
  Activity: 0.86%
[28]
  logD: 1.53
[46]
  inhibition: Active
[29]
  GI50: 468 nM
[30]
  GI50: 604 nM
[31]
  Activity: 13.96%
[32]
  GI50: 556 nM
[35]
  IC50: > 25000 nM
[36]
  Activity: 14.51%
[37]
  Activity: 20.54%
[39]
  GI50: 484 nM
[40]
  Activity: 19.36%
[41]
  Activity: 21.15%
[43]
  GI50: 610 nM
[47]
  Activity: Active
